Test results published in patent publication US5460697A, “Method of pulping wood chips with a fungi using sulfite salt-treated wood chips” (priority 1994, dated 1995).
“Also recorded” adds a separate entry of the source.

Assays:
[1] = test system: indigenous microorganisms; assay: Effect of sulfite salts on indigenous microorganisms of unsterilized wood chips (plating); format: cell-based, indigenous microorganisms of unsterilized aspen wood chips
Method: Aspen wood chips (50 g O.D. basis) were soaked in 500 ml of water containing either 0 mg, 781 mg or 1562 mg sodium bisulfite for about 1 hour at room temperature. After soaking, water was drained from the chips.
During the 1 hour soaking the chips soaked up about 31 ml of water. Therefore, the final moisture content of wood was about 61% (wet weight basis) and the final concentration of each chemical on water basis was about 0 μg/ml, 600 μg/ml and 1200 μg/ml.
Three chips were pulled randomly from each flask and plated on potato dextrose agar and tryptic soy agar plates. These plates were incubated at 27° C. for 24 or 27 h and the contaminants were visually observed.
A panel of other sulfur-containing chemicals were analyzed for their ability to inhibit the growth of indigenous microorganisms on unsterilized wood chips in the manner described above. Table 2 describes the various concentrations of these chemicals and the percent inhibition relative to control plates observed.

C. subvermispora = assay: Growth of C. subvermispora on sodium bisulfite-treated chips; format: cell-based; conditions: for growth of C. subvermispora at harvest (in words): fungus-treated chips with sodium bisulfite
Method: To prepare a liquid inoculum of C. subvermispora, potato dextrose broth (43.20 g) and yeast extract (13.08 g) were added to 1800 ml of distilled water and mixed well. 300 ml of this medium was poured into six 2800-ml flasks. Each flask was autoclaved for 20 min. at 121° C. After cooling to room temperature, each flask was inoculated with 30 plugs cut into 13-mm diameter plugs from a 10-day old fungal culture on a potato dextrose agar plate. The flasks were then incubated at 27° C. at 65% relative humidity for 10-15 days. Prior to use, the flasks containing the fungal biomass were decanted and washed with sterile distilled water to remove excess medium from the fungus. The fungal biomass was then placed in distilled water and blended in a Waring blender (VWR scientific) twice for 15 seconds each time at high speed, following which distilled water was added to the suspension to make the total volume 500 ml. About 100 grams of this suspension (2.61 g dry weight) was added to each bioreactor containing about 1600 grams of aspen chips measured on a dry weight basis prepared as described below. The blended mycelium was dumped onto the chips and mixed.
Three batches of aspen wood chips were prepared, each batch containing 1800 g dry weight of chips. One batch was soaked in 18 kg of water containing no sodium bisulfite. A second batch was soaked in 18 kg of water containing 28.125 g of sodium bisulfite. A third batch was soaked in 18 kg of water containing 56.250 g of sodium bisulfite. After the chips had soaked, we performed our experiments on 1600 g of chips (dry weight basis). The soaking was done at room temperature for about 1 hour. […] Based on the amount of water or sodium bisulfite solution absorbed by the chips, we calculated that 1600 g dry weight of chips retained about 600 or 1200 μg/ml of sodium bisulfite. […]
We repeated the experiment described above with a four-week incubation. […] Based on the amount of water or sodium bisulfite solution soaked, we calculated that each batch of 1600 g dry weight of chips retained about 1300 μg/ml of sodium bisulfite. […]

[2] = Effluent toxicity (Microtox); conditions: for Toxicity Units (100/EC50): 1300 μg/ml BiS
From the text: Evaluating biopulp effluents is an important factor in assessing the feasibility of this new pulping process. […] Because the composition of biopulp effluent is unknown, we selected a general toxicity test method, Microtox, as an appropriate method for the evaluation. Microtox analysis has been used satisfactorily as a rapid screening method for evaluating toxicity of pulp mill effluents Firth, B. and Backman, C. Tappi J., 75[12]169; 1991.
For each run, approximately 1.5-1.6 kg wood chips (oven dry weight basis) of each treatment from 4-week incubation samples, were fiberized in an atmospheric refiner and the pulp slurry was collected in 20-gallon plastic containers. The flow rate during refining operation was approximately 50 kg 90° C. water per kg chips (oven dry weight basis). A representative 5-gallon sample was taken from each slurry and filtered on a Buchner funnel to separate pulp from effluent (filtrate). Filtrates were cooled to 4° C. and pH was recorded. Chilled effluent samples were submitted for Microtox testing at National Council for Air and Stream Improvement according to standard Microtox procedures.

O=S([O-])O.[Na+] [Sodium Bisulfite]
Inhibition Relative to control ([1]; 600 μg/ml): 95%
Inhibition Relative to control ([1]; 1200 μg/ml): 100%
inhibition of contaminants (in words) ([1]; 1200 μg/ml, potato dextrose and tryptic soy agar plates): completely inhibited all contaminants; also recorded: no colonies on the plate
first test: whether the salt inhibits growth of indigenous microorganisms ([1]; pass / not pass): passed the first test
inhibition of growth of indigenous microorganisms (in words) ([1]; unsterilized wood chips, overall statement): successfully inhibited the growth of microorganisms; also recorded: inhibited all wood contaminants; also recorded: inhibited the growth of indigenous microorganisms
growth of C. subvermispora at harvest (in words) (C. subvermispora; 2 weeks): heavy growth of C. subvermispora
growth of C. subvermispora at harvest (in words) (C. subvermispora; 4 weeks): heavy growth of C. subvermispora
growth of white-rot fungi such as C. subvermispora (in words) (C. subvermispora; treatment of wood chips, summary): promoted the growth of white-rot fungi
Toxicity Units (100/EC50) ([2]; Control 2: not A/C, no fungus): 15.4 Toxicity Units
Toxicity Units (100/EC50) ([2]; Control 4: A/C, no fungus): 16.1 Toxicity Units
Toxicity Units (100/EC50) ([2]; Treatment 2: not A/C, with fungus, 4-week incubation): 4.2 Toxicity Units
Toxicity Units (100/EC50) ([2]; Treatment 4: A/C, with fungus, 4-week incubation): 6.2 Toxicity Units
toxicity (in words) ([2]; at least 2-2.5 kg/ton of wood chips, unsterilized, vs control chips): less toxicity than from control chips
effluent toxicity (in words) ([2]; biopulp, treatment 2): least toxic effluent from biopulp
effluent toxicity (in words) ([2]; controls without fungus (control 2, control 4)): high effluent toxicity; also recorded: increased effluent toxicity of the non-autoclaved control chips
